Data as given in PubChem BioAssay (NCI).
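Interpolation was linear, between the two tested concentrations surrounding the appropriate level; five concentrations were tested over 48 hours in 96-well plates. TGI marks complete inhibition of growth.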

How the values were obtained:
Test in all cases: growth of human tumour cells (NCI), 48 h
786-0 renal = test system: 786-0 renal
A549 NSCLC = test system: A549 NSCLC
ACHN renal = test system: ACHN renal
BT-549 breast = test system: BT-549 breast
CAKI-1 renal = test system: CAKI-1 renal
CCRF-CEM leukemia = test system: CCRF-CEM leukemia
COLO 205 colon = test system: COLO 205 colon
DU-145 prostate = test system: DU-145 prostate
EKVX NSCLC = test system: EKVX NSCLC
HCC-2998 colon = test system: HCC-2998 colon
HCT-116 colon = test system: HCT-116 colon
HCT-15 colon = test system: HCT-15 colon
HL-60(TB) leukemia = test system: HL-60(TB) leukemia
HOP-62 NSCLC = test system: HOP-62 NSCLC
HOP-92 NSCLC = test system: HOP-92 NSCLC
HS 578T breast = test system: HS 578T breast
HT29 colon = test system: HT29 colon
IGROV1 ovarian = test system: IGROV1 ovarian
K-562 leukemia = test system: K-562 leukemia
KM12 colon = test system: KM12 colon
LOX IMVI melanoma = test system: LOX IMVI melanoma
M14 melanoma = test system: M14 melanoma
MALME-3M melanoma = test system: MALME-3M melanoma
MCF7 breast = test system: MCF7 breast
MDA-MB-231 breast = test system: MDA-MB-231 breast
MDA-MB-435 = test system: MDA-MB-435
MDA-N = test system: MDA-N
MOLT-4 leukemia = test system: MOLT-4 leukemia
NCI-H226 lung = test system: NCI-H226 lung
NCI-H23 lung = test system: NCI-H23 lung
NCI-H460 lung = test system: NCI-H460 lung
NCI-H522 lung = test system: NCI-H522 lung
NCI/ADR-RES ovarian = test system: NCI/ADR-RES ovarian
OVCAR-3 ovarian = test system: OVCAR-3 ovarian
OVCAR-4 ovarian = test system: OVCAR-4 ovarian
OVCAR-5 ovarian = test system: OVCAR-5 ovarian
OVCAR-8 ovarian = test system: OVCAR-8 ovarian
PC-3 prostate = test system: PC-3 prostate
RPMI-8226 leukemia = test system: RPMI-8226 leukemia
RXF 393 renal = test system: RXF 393 renal
SF-268 CNS = test system: SF-268 CNS
SF-295 CNS = test system: SF-295 CNS
SF-539 CNS = test system: SF-539 CNS
SK-MEL-2 melanoma = test system: SK-MEL-2 melanoma
SK-MEL-28 melanoma = test system: SK-MEL-28 melanoma
SK-MEL-5 melanoma = test system: SK-MEL-5 melanoma
SK-OV-3 ovarian = test system: SK-OV-3 ovarian
SN12C renal = test system: SN12C renal
SNB-19 CNS = test system: SNB-19 CNS
SNB-75 CNS = test system: SNB-75 CNS
SR leukemia = test system: SR leukemia
SW-620 colon = test system: SW-620 colon
T-47D breast = test system: T-47D breast
TK-10 renal = test system: TK-10 renal
U251 CNS = test system: U251 CNS
UACC-257 melanoma = test system: UACC-257 melanoma
UACC-62 melanoma = test system: UACC-62 melanoma
UO-31 renal = test system: UO-31 renal

In the case of `Cn1c2ccccc2c(=NNc2ccc(S(N)(=O)=O)cc2)c2ccccc21`, the TGI (786-0 renal) is reported as greater than 50 µM, the TGI (A549 NSCLC) is reported as greater than 50 µM and the TGI (ACHN renal) is reported as 29 µM. The TGI (BT-549 breast) was greater than 50 µM, the TGI (CAKI-1 renal) was greater than 50 µM and the TGI (CCRF-CEM leukemia) was greater than 50 µM. The TGI (COLO 205 colon) was greater than 50 µM, the TGI (DU-145 prostate) was greater than 50 µM and the TGI (EKVX NSCLC) was greater than 50 µM. The TGI (HCC-2998 colon) was 38.7 µM, the TGI (HCT-116 colon) was greater than 50 µM and the TGI (HCT-15 colon) was greater than 50 µM. It also gave a TGI (HL-60(TB) leukemia) of 32 µM, a TGI (HOP-62 NSCLC) greater than 50 µM and a TGI (HOP-92 NSCLC) of 35.8 µM. It also gave a TGI (HS 578T breast) greater than 50 µM, a TGI (HT29 colon) greater than 50 µM and a TGI (IGROV1 ovarian) greater than 50 µM. For the same molecule, the TGI (K-562 leukemia) was 40.4 µM, the TGI (KM12 colon) was greater than 50 µM and the TGI (LOX IMVI melanoma) was 38.1 µM. For the same molecule, the TGI (M14 melanoma) was greater than 50 µM, the TGI (MALME-3M melanoma) was 43.2 µM and the TGI (MCF7 breast) was 43.1 µM. The TGI (MDA-MB-231 breast) was greater than 50 µM, the TGI (MDA-MB-435) was greater than 50 µM and the TGI (MDA-N) was greater than 50 µM. The TGI (MOLT-4 leukemia) was 26.9 µM, the TGI (NCI-H226 lung) was 48.4 µM and the TGI (NCI-H23 lung) was greater than 50 µM. It also gave a TGI (NCI-H460 lung) of 34.3 µM, a TGI (NCI-H522 lung) greater than 50 µM and a TGI (NCI/ADR-RES ovarian) greater than 50 µM. For the same molecule, the TGI (OVCAR-3 ovarian) was greater than 50 µM, the TGI (OVCAR-4 ovarian) was greater than 50 µM and the TGI (OVCAR-5 ovarian) was greater than 50 µM. It also gave a TGI (OVCAR-8 ovarian) greater than 50 µM, a TGI (PC-3 prostate) greater than 50 µM and a TGI (RPMI-8226 leukemia) greater than 50 µM. For the same molecule, the TGI (RXF 393 renal) was 43.7 µM, the TGI (SF-268 CNS) was greater than 50 µM and the TGI (SF-295 CNS) was greater than 50 µM. For the same molecule, the TGI (SF-539 CNS) was greater than 50 µM, the TGI (SK-MEL-2 melanoma) was 34.3 µM and the TGI (SK-MEL-28 melanoma) was greater than 50 µM. The TGI (SK-MEL-5 melanoma) was 22.5 µM, the TGI (SK-OV-3 ovarian) was greater than 50 µM and the TGI (SN12C renal) was greater than 50 µM. For the same molecule, the TGI (SNB-19 CNS) was greater than 50 µM, the TGI (SNB-75 CNS) was 46.6 µM and the TGI (SR leukemia) was 25.6 µM. It also gave a TGI (SW-620 colon) greater than 50 µM, a TGI (T-47D breast) of 34.8 µM and a TGI (TK-10 renal) greater than 50 µM. The TGI (U251 CNS) was greater than 50 µM, the TGI (UACC-257 melanoma) was 49.8 µM and the TGI (UACC-62 melanoma) was greater than 50 µM. For the same molecule, the TGI (UO-31 renal) was 41.1 µM.

Work on `CC(C)OP(=O)(CCCCCCCCC/C=C/c1ccc2c(c1)OCCOCCOCCOCCO2)OC(C)C` yielded a TGI (786-0 renal) of 14.1 µM, a TGI (A549 NSCLC) of 13.6 µM and a TGI (ACHN renal) of 11.8 µM. For the same molecule, the TGI (BT-549 breast) was 9.09 µM, the TGI (CAKI-1 renal) was 11.7 µM and the TGI (CCRF-CEM leukemia) was 7.5 µM. It also gave a TGI (COLO 205 colon) of 3.89 µM, a TGI (DU-145 prostate) of 15.2 µM and a TGI (EKVX NSCLC) of 11.8 µM. The TGI (HCC-2998 colon) was 14.2 µM, the TGI (HCT-116 colon) was 11.2 µM and the TGI (HCT-15 colon) was 10.3 µM. It also gave a TGI (HL-60(TB) leukemia) of 30.7 µM, a TGI (HOP-62 NSCLC) of 6.15 µM and a TGI (HOP-92 NSCLC) of 5.8 µM. For the same molecule, the TGI (HS 578T breast) was 9.02 µM, the TGI (HT29 colon) was 11 µM and the TGI (IGROV1 ovarian) was 16.2 µM. For the same molecule, the TGI (K-562 leukemia) was 24.1 µM, the TGI (KM12 colon) was 11 µM and the TGI (LOX IMVI melanoma) was 4.93 µM. The TGI (M14 melanoma) was 13.5 µM, the TGI (MALME-3M melanoma) was 13.7 µM and the TGI (MCF7 breast) was 11.2 µM. For the same molecule, the TGI (MDA-MB-231 breast) was 12.6 µM, the TGI (MDA-MB-435) was 13.6 µM and the TGI (MDA-N) was 13.5 µM. It also gave a TGI (MOLT-4 leukemia) of 10.7 µM, a TGI (NCI-H226 lung) of 9.24 µM and a TGI (NCI-H23 lung) of 8.21 µM. The TGI (NCI-H460 lung) was 7.37 µM, the TGI (NCI-H522 lung) was 10.1 µM and the TGI (NCI/ADR-RES ovarian) was 10.5 µM. It also gave a TGI (OVCAR-3 ovarian) of 10 µM, a TGI (OVCAR-4 ovarian) of 16.2 µM and a TGI (OVCAR-5 ovarian) of 11.4 µM. It also gave a TGI (OVCAR-8 ovarian) of 12.1 µM, a TGI (PC-3 prostate) of 9.51 µM and a TGI (RPMI-8226 leukemia) greater than 100 µM. The TGI (RXF 393 renal) was 9.12 µM, the TGI (SF-268 CNS) was 16.8 µM and the TGI (SF-295 CNS) was 10.3 µM. For the same molecule, the TGI (SF-539 CNS) was 12.4 µM, the TGI (SK-MEL-2 melanoma) was 8.69 µM and the TGI (SK-MEL-28 melanoma) was 20.1 µM. For the same molecule, the TGI (SK-MEL-5 melanoma) was 7.76 µM, the TGI (SK-OV-3 ovarian) was 9.19 µM and the TGI (SN12C renal) was 14.2 µM. The TGI (SNB-19 CNS) was 15.2 µM, the TGI (SNB-75 CNS) was 10.4 µM and the TGI (SR leukemia) was 15.4 µM. The TGI (SW-620 colon) was 14.7 µM, the TGI (T-47D breast) was 9.11 µM and the TGI (TK-10 renal) was 21.4 µM. The TGI (U251 CNS) was 7.74 µM, the TGI (UACC-257 melanoma) was 10.2 µM and the TGI (UACC-62 melanoma) was 14.8 µM. For the same molecule, the TGI (UO-31 renal) was 9.02 µM.
